Blank lines part the entries; values can stand above or below the compound they belong to.
Tests used:
[1] = Phase 1, open-label, single-dose PK study of valbenazine in subjects with normal renal function or severe renal impairment; assay type: in vivo, human; settings: for effect of severe renal impairment on AUC0-∞ / effect of severe renal impairment on Cmax: single dose valbenazine 40 mg (free base equivalent as ditosylate), fasted, severe renal impairment compared to normal renal function; for effect of renal status on protein binding: severe renal impairment vs normal renal function
Procedure: (§1) This was a Phase 1, open-label, single-dose, PK study of valbenazine to assess the safety and PK of valbenazine and its metabolites in subjects with normal renal function or severe renal impairment. A total of 16 subjects (8 with severe renal impairment and 8 with normal renal function) received a single dose of valbenazine 40 mg (free base equivalent as the ditosylate salt) under fasted conditions.

[2] = cited from earlier work
[3] = Safety and tolerability in the Phase 1 single-dose study (TEAEs, laboratory tests, vital signs, ECG); assay type: in vivo, human
Procedure: as §1

[4] = valbenazine 40 mg single dose, all 16 subjects

effect of severe renal impairment on AUC0-∞ [1]: no clinically meaningful effect
effect of severe renal impairment on Cmax [1]: no clinically meaningful effect
effect of renal status on protein binding ([1]; single dose valbenazine 40 mg): little effect
Compound: COc1cc2c(cc1OC)[C@H]1C[C@@H](O)[C@H](CC(C)C)CN1CC2 [NBI-98782, (2R, 3R,11bR)-3-isobutyl-9,10-dimethoxy-1,3,4,6,7,11b-hexahydro-2H-pyrido[2,1-a]isoquinolin-2-ol]

effect of severe renal impairment on AUC0-∞ [1]: no clinically meaningful effect
effect of severe renal impairment on Cmax [1]: no clinically meaningful effect
Compound: COc1cc2c(cc1OC)[C@H]1C[C@@H](OC(=O)[C@@H](N)C(C)(C)O)[C@H](CC(C)C)CN1CC2 [NBI-136110]

Compound: COc1cc2c(cc1OC)[C@H]1C[C@@H](OC(=O)[C@@H](N)C(C)C)[C@H](CC(C)C)CN1CC2 [Valbenazine ditosylate, L-Valine, (2R,3R,11bR)-1,3,4,6,7,11b-hexahydro-9,10-dimethoxy-3-(2-methylpropyl)-2H-benzo[a]quinolizin-2-yl ester, 4-methylbenzenesulfonate (1:2)]
solubility in water [2]: slightly soluble

Compound: COc1cc2c(cc1OC)[C@H]1C[C@@H](OC(=O)[C@@H](N)C(C)C)[C@H](CC(C)C)CN1CC2 [valbenazine, (S)-2-amino-3-methyl-butyric acid (2R, 3R,11bR)-3-isobutyl-9,10-dimethoxy-1,3,4,6,7,11b-hexahydro-2H-pyrido[2,1-a]isoquinolin-2-yl ester]
urine clearance in subjects with severe renal impairment compared with normal renal function ([1]; single dose valbenazine 40 mg): reduction
effect of severe renal impairment on AUC0-∞ [1]: no clinically meaningful effect
effect of severe renal impairment on Cmax [1]: no clinically meaningful effect
effect of renal status on protein binding ([1]; single dose valbenazine 40 mg): little effect
treatment-related TEAE headache ([3]; normal renal function group): 1 subject
treatment-related TEAE somnolence ([3]; normal renal function group): 1 subject
treatment-related TEAE somnolence ([3]; severe renal impairment group): 1 subject
treatment-related TEAE vision blurred ([3]; severe renal impairment group): 1 subject
subjects with QTcF increase from baseline >60 msec ([3]; valbenazine 40 mg single dose): No subject
subjects with QTcF interval >480 msec ([3]; valbenazine 40 mg single dose): No subject
subjects who experienced TEAEs, each of the renal function groups ([3]; valbenazine 40 mg single dose, 8 subjects per group (normal renal function; severe renal impairment)): 2 (25.0%) subjects
tolerability ([3]; valbenazine 40 mg single dose, 16 subjects (8 normal renal function, 8 severe renal impairment)): well tolerated
deaths, serious or severe TEAEs, or discontinuations due to a TEAE [3, 4]: no deaths, serious or severe TEAEs, or discontinuations due to a TEAE
subjects who experienced TEAEs, overall [3, 4]: 4 (25.0%) subjects
treatment-related TEAEs reported [3, 4]: 3 subjects
changes in clinical laboratory tests, vital sign measurements, weight, or ECG parameters ([3]; valbenazine 40 mg single dose, during the study): no clinically significant changes

From patent US10940141B1, “Methods for the administration of certain VMAT2 inhibitors” (Neurocrine Biosciences, Inc., priority 2019, dated 2021)
